Values of other authors, collected in patent publication US20060088617A1, “Chocolate composition and method for benefiting the cardiovascular system” (priority 2004, published 2006).

System: blood vessel function
Conditions: after consumption of flavonoid-rich dark chocolate

- absorption of epicatechin in the blood: absorbed at high levels in the blood
SMILES: Oc1cc(O)c2c(c1)O[C@H](c1ccc(O)c(O)c1)[C@H](O)C2 [epicatechin]
